Test results as given in US20230355599A1, “BIOMARKERS FOR CBL, AND COMPOSITIONS AND METHODS FOR THEIR USE” (NURIX THERAPEUTICS, INC., priority 2022, published 2023).

Assays:
phosphorylated HS1 = test: Phosphorylated HS1 in human CD8+ T cells from whole blood in vitro (flow cytometry); type: cell-based
Experimental: To assess these candidate clinical proximal biomarkers of Cbl-b inhibition on T cells, pharmacodynamic analysis was performed. Whole blood was obtained from human donors and incubated with increasing concentrations of Compound 23. The response to Cbl-b inhibition on phosphorylated HS1, PLCγ2, and ZAP70 was measured in CD8^+ T cells using flow cytometry. This technique is highly quantitative and can measure multiple phosphorylation markers in different cell populations within the same sample.
For pharmacodynamic analysis, whole blood was obtained from six human donors (BioIVT) and used for flow cytometry assays to evaluate phosphorylated biomarkers HS1, PLCγ2, and ZAP70 in CD8^+ T cells.
Whole blood was collected in a collection tube coated with sodium heparin. […]
Stained cells were run on an Attune NxT Acoustic Focusing Flow Cytometer (Thermo Fisher, cat. No. A29004), and data was analyzed using FlowJo (v10.6.1) and GraphPad Prism (v8.00) software. Single lymphocytes were gated for CD8^+ cells (CD45^+/CD8^+) cells, and population frequencies were calculated for each population. The data is quantified by the percent positive. […] As protein becomes phosphorylated the fluorescence increases resulting in a larger fraction of the cells entering that gate. Each population was evaluated for % positive pY759-PLCγ2, pY397-HS1 levels, pY319/Syk (Y352)-ZAP70 levels. […]

pY397-HS1 = test: Phosphoprotein screen in human whole blood with CBL inhibitor at 10 uM: HS1; type: cell-based; details: 1 hr 37° C., human whole blood 8 donors, anti-CD3/CD28 + crosslinker 60 minutes
Experimental: To identify proximal biomarkers of CBL-B inhibition in immune cells, a panel of phosphorylated proteins were screened in human whole blood incubated with CBL-B inhibitor and concomitant anti-CD3 and anti-CD28 antibodies. The effect of CBL-B inhibition was assessed across multiple cellular signaling networks.
Human heparinized whole blood from 8 donors was received after an overnight shipment at 4° C. The blood was plated, treated with CBL inhibitor at 10 uM and incubated at 37° C. for 60 minutes. After incubation, the cells were stimulated with anti-CD3/CD28 followed by a cross-linking antibody (30 μg of goat anti-mouse IgG (H+L) antibody (Invitrogen)). After 60 minutes, the cells were fixed, and stained using surface markers for T cells (CD3^+CD4^+& CD3^+CD8^+) and analyzed by flow cytometry for target phosphorylation of the following markers: pY180/pY511-ITK, pY397-HS1, pY759-PLCg2, pY783-PLCg1, pY525/pY526/pY348-SYK & pY319-Zap70.
Fold change of each biomarker was calculated with the following example equation: […]
Whole blood from eight human donors was collected in sodium heparin anti-coagulant treated with 10 μM of Compound 23 for 1 hr at 37° C. […] Fold change of % phosphorylation normalized to DMSO was quantitated in T cells (CD8^+) using flow cytometry is provided in FIGS. 6A-6B.

SMILES: C[C@H]1CCCN(Cc2cc3c(c(C(F)(F)F)c2)CN(c2cccc([C@]4(c5nncn5C)C[C@@H](C)C4)c2)C3=O)C1 [Compound 23]
- EC50 (phosphorylated HS1; T-cell, whole blood from six human donors, 2 hrs 37° C., anti-CD3/anti-CD28 + crosslinker 60 minutes, CD8+ T cells, read-out: Average mean EC50±standard deviation, phosphorylated HS1): 89 ± 7.91 nM
- phosphorylated HS1 in human whole blood (FIG. 7) (phosphorylated HS1; human donors n=6, two hours at 37° C., anti-CD3 and anti-CD28 co-stimulation, crosslinked): concentration-dependent increase
- increased phosphorylation of HS1 compared to DMSO control (pY397-HS1): 3-4 fold
